Assays:
[1] = logP determination by HPLC (EEC Directive 79/831 Annex V.A8), reversed-phase column C 18; assay type: physicochemical
Method: The logP values given in Table 1 were determined in accordance with EEC Directive 79/831 Annex V.A8 by HPLC (High Performance Liquid Chromatography) using a reversed-phase column (C 18). Temperature: 43° C.
(a) Mobile phases for the determination in the acidic range: 0.1% aqeuous phosphoric acid, acetonitrile; linear gradient from 10% acetonitrile to 90% acetonitrile—the corresponding test results in Table 1 are labelled^a).
(b) Mobile phases for the determination in the neutral range: 0.01 molar aqueous phosphate buffer solution, acetonitrile; linear gradient from 10% acetonitrile to 90% acetonitrile—the corresponding test results in Table 1 are labelled^b).
Calibration was carried out using unbranched alkan-2-ones (having 3 to 16 carbon atoms) with known logP values (determination of the logP values by the retention times using linear interpolation between two successive alkanones).

[2] = reversed-phase HPLC column (C 18); a) acidic range: 0.1% aqueous phosphoric acid/acetonitrile gradient, 43° C.

| Structure (SMILES) | melting point [°C] | chromatographic logP [1, 2] | other results |
| --- | --- | --- | --- |
| COc1ccc2cc(Oc3cc(-n4c(=O)cc(C(N)=O)n(C)c4=O)c(F)cc3C#N)ccc2c1 [Example 35, 1-[4-cyano-2-fluoro-5-(6-methoxy-naphthalen-2-yl-oxy)-phenyl]-2,6-dioxo-3-methyl-1,2,3,6-tetrahydro-pyrimidine4-carboxamide] |  | 2.06 |  |
| CCOC(=O)NC1=CC(=O)N(c2cc(Oc3ccc4cc(OC)ccc4c3)c(C#N)cc2F)C1=O [Example (VII-1), ethyl [1-(4-cyano-2-fluoro-5-(6-methoxy-naphthalen-2-yl-oxy)-phenyl)-2,5-dioxo-2,5-dihydro-1H-pyrrol-3-yl]-carbamate] |  |  | chromatographic logP ([1]; mobile-phase label not given): 3.63 |
| N#Cc1cc(F)c(-n2c(=O)cc(C(F)(F)F)[nH]c2=O)cc1Oc1ccc2ccccc2c1 | 92 |  |  |
| COc1ccc2cc(Oc3cc(-n4c(=O)cc(C(=O)O)[nH]c4=O)c(F)cc3C#N)ccc2c1 [Example 31, 1-[4-cyano-2-fluoro-5-(6-methoxy-naphthalen-2-yl-oxy)-phenyl]-2,6-dioxo-1,2,3,6-tetrahydro-pyrimidine-4-carboxylic acid] |  | 2.11 |  |
| CCOC(=O)[C@@H](C)Oc1ccc2cc(Oc3cc(-n4c(=O)cc(C(F)(F)F)n(C)c4=O)c(F)cc3C#N)ccc2c1 [Example 6, ethyl (R)-2-[6-(2-cyano-4-fluoro-5-[3-methyl-2,6-dioxo-4-trifluoromethyl-3,6-dihydro-1(2H)-pyrimidinyl]-phenoxy)-2-naphthyl-oxy]-propanoate] |  |  | chromatographic logP ([1]; reversed-phase HPLC column (C 18), at pH 2.3): 3.99 |
| COC(=O)c1cc(=O)n(-c2cc(Oc3ccc4cc(OC)ccc4c3)c(C#N)cc2F)c(=O)n1C [Example 33, methyl I-[4-cyano-2-fluoro-5-(6-methoxy-naphthalen-2-yl-oxy)-phenyl]-2,6-dioxo-3-methyl-1,2,3,6-tetrahydro-pyrimidine-4-carboxylate] |  | 3.22 |  |

Continued, in another order:

| melting point [°C] | chromatographic logP [1, 2] | Structure (SMILES) | other results |
| --- | --- | --- | --- |
| 168 |  | N#Cc1cc(F)c(-n2c(=O)cc(C(F)(F)F)[nH]c2=O)cc1Oc1cccc2c(O)cccc12 |  |
| 133 |  | CCOC(=O)C(C)Oc1ccc2ccc(Oc3cc(-n4c(=O)cc(C(F)(F)F)n(C)c4=O)c(F)cc3C#N)cc2c1 (racemic) |  |
| 109 |  | COc1cccc2c(Oc3cc(-n4c(=O)cc(C(F)(F)F)n(C)c4=O)c(F)cc3C#N)cccc12 |  |
| 174 |  | Cn1c(C(F)(F)F)cc(=O)n(-c2cc(Oc3ccc4cc(O)ccc4c3)c(C#N)cc2F)c1=O |  |
